Assays:
Format in all cases: in vivo
Anthonomus grandis = assay: Example B1: Activity against Anthonomus grandis; settings: 72 h, 400 ppm spray on young cotton plants, 10 adult beetles, evaluated after 3 days, read-out: percentage reduction in population and percentage reduction in feeding damage (% activity)
Protocol: Young cotton plants are sprayed with an aqueous emulsion spray mixture comprising 400 ppm of active ingredient. After the spray coating has dried on, the plants are populated with 10 adult Anthonomus grandis and placed into a plastic container. 3 days later, the test is evaluated. The percentage reduction in population and the percentage reduction in feeding damage (% activity) are determined by comparing the number of dead beetles and the feeding damage between the treated and the untreated plants.

Aphis craccivora = assay: Example B2: Activity against Aphis craccivora; settings: 400 ppm spray on infected pea seedlings, 20° C., evaluated after 3 and 6 days, read-out: percentage reduction in population (% activity)
Protocol: (§1) Pea seedlings are infected with Aphis craccivora, subsequently sprayed with a spray mixture comprising 400 ppm of active ingredient and then incubated at 20° C. The test is evaluated after 3 and 6 days. The percentage reduction in population (% activity) is determined by comparing the number of dead aphids on the treated and untreated plants.

Ctenocephalides felis = assay: Example B4: Activity against Ctenocephalides felis (systemic); settings: 5 ppm in blood at 37°, fed through membrane, 20 adult fleas, evaluated after 24 and 48 hours, read-out: percentage reduction in population (% activity)
Protocol: Twenty adult fleas of the species Ctenocephalides felis are placed into a flat, round cage, both sides of which are covered with gauze. A container whose bottom is sealed with a Parafilm membrane is placed onto the cage. In the container there is blood which comprises 5 ppm of active ingredient and which is constantly heated at 37°. The fleas take up blood through the membrane. The test is evaluated 24 and 48 hours after setting up the experiment The percentage reduction in population (% activity) is determined by comparing the number of dead fleas when using treated and untreated blood. 24 hours after the treatment, the blood is replaced by fresh blood which has also been treated.

Diabrotica balteata = assay: Example B5: Activity against Diabrotica balteata; settings: 144 h, 400 ppm spray on maize seedlings, 10 larvae in the second stage, evaluated after 6 days, read-out: percentage reduction in population (% activity)
Protocol: Maize seedlings are sprayed with an aqueous emulsion spray mixture comprising 400 ppm of active ingredient. After the spray coating has dried on, the seedlings are populated with 10 Diabrotica balteata larvae in the second stage and transferred to a plastic container. The test is evaluated after 6 days. The percentage reduction in population (% activity) is determined by comparing the number of dead larvae between the treated and untreated plants.

Heliothis virescens = assay: Example B6: Activity against Heliothis virescens; settings: 144 h, 400 ppm spray on young soyabean plants, 10 caterpillars in the first stage, evaluated after 6 days, read-out: percentage reduction in population and in feeding damage (% activity)
Protocol: Young soyabean plants are sprayed with an aqueous emulsion spray mixture comprising 400 ppm of active ingredient. After the spray coating has dried on, the plants are populated with 10 Heliothis virescens caterpillars in the first stage and transferred to a plastic container. The test is evaluated after 6 days. The percentage reduction in population and in feeding damage (% activity) are determined by comparing the number of dead caterpillars and the feeding damage between the treated and untreated plants.

Myzus persicae = assay: Example B8: Activity against Myzus persicae; settings: 400 ppm spray on infected pea seedlings, 20°, evaluated after 3 and 6 days, read-out: percentage reduction in population (% activity)
Protocol: as §1, with “Myzus persicae,” for “Aphis craccivora,”, “20°.” for “20° C.”

Nephotettix cincticeps = assay: Example B10: Activity against Nephotettix cincticeps; settings: 504 h, 400 ppm spray on rice plants, larvae in the 2nd and 3rd stages, evaluated after 21 days, read-out: percentage reduction in population (% activity)
Protocol: (§2) Rice plants are sprayed with an aqueous emulsion spray mixture comprising 400 ppm of active ingredient. After the spray coating has dried on, the plants are populated with larvae in the 2nd and 3rd stages. The test is evaluated after 21 days. The percentage reduction in population (% activity) is determined by comparing the number of surviving leaf hoppers on the treated and untreated, plants.

Nilaparvata lugens = assay: Example B12: Activity against Nilaparvata lugens; settings: 504 h, 400 ppm spray on rice plants, larvae in the 2nd and 3rd stages, evaluated after 21 days, read-out: percentage reduction in population (% activity)
Protocol: as §2, with “populated with plant hopper larvae in” for “populated with larvae in”, “of surviving plant hoppers on” for “of surviving leaf hoppers on”, “treated and untreated plants.” for “treated and untreated, plants.”

CN1COCN(Cc2ccc(Cl)nc2)/C1=N/[N+](=O)[O-] [Compound No. 1.2, 5-(2-Chloropyrid-5-ylmethyl)-3-methyl-4-nitroiminoperhydro-1,3,5-oxadiazine]
> 80%: inhibition at 400 ppm (Anthonomus grandis) | inhibition at 400 ppm (Aphis craccivora) | inhibition at 5 ppm (Ctenocephalides felis) | inhibition at 400 ppm (Diabrotica balteata) | inhibition at 400 ppm (Heliothis virescens) | inhibition at 400 ppm (Myzus persicae) | inhibition at 400 ppm (Nephotettix cincticeps) | inhibition at 400 ppm (Nilaparvata lugens)

— US7655650B2, “Oxadiazine derivatives” (Syngenta Corporation, priority 1992, dated 2010)
